The text below walks through data of patent US20210387983A1, “CRYSTALLINE ALK5 INHIBITORS AND USES THEREOF” (THERAVANCE BIOPHARMA R&D IP, LLC, priority 2020, published 2021).

Data set [1] has as its target T1, recombinant human ALK5 (TGF-βR1) protein (Homo sapiens, UniProt P36897).
T1 construct: purchased Life Technologies PR9075A
T1 sequence (P36897 34-503): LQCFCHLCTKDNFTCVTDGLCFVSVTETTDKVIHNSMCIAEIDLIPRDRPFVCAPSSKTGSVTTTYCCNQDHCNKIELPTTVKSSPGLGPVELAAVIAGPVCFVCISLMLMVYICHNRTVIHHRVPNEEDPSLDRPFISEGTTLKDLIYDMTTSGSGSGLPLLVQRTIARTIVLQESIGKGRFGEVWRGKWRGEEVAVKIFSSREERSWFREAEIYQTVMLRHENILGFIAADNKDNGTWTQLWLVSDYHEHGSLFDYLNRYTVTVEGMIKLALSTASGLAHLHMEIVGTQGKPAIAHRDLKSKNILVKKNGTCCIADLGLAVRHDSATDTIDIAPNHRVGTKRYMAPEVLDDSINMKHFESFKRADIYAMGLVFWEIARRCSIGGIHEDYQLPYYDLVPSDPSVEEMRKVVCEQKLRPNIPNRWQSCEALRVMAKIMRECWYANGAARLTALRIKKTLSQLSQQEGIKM
Put plainly: Biochemical ALK5 (TGF-βR1) assay to measure pKi (LANCE Ultra ULight kinase assay). To be noted: apparent pKi, converted from pIC50 using the Cheng-Prusoff equation. The procedure: The assays were performed in a 384-well plate (24 columns×16 wells/rows). An Echo®550 Liquid Handler (Labcyte) was used to prepare various intermediate concentrations of the compound of Formula I in 100% DMSO. From the intermediate concentrations, a range of concentrations (from 10 μM to […] corresponding to volumes up to 105 nL) were prepared and ejected into a final assay plate to be used to create individual dose response curves. To a separate column within the assay plate, 105 nL of DMSO in each well was used to establish a maximum assay signal. […]
Next, 2 μL of 125 μM ATP (5× final, 125 μM ATP prepared in assay buffer with 2 mM DTT) was added to the incubated mixtures, covered with a MicroClime® Environmental Lid (Product No. LLS-0310, Labcyte) and immediately transferred to 37° C. […] The plate was then read on a Perkin Elmer EnVision Plate Reader using europium specific reader settings with excitation and emission wavelengths set to 320 or 340 nm and 665 nm, respectively.
For dose-response analyses, percent inhibition versus compound concentrations were plotted, and pIC50 values were determined from a 4-parameter robust fit model with GraphPad Prism V5 Software (GraphPad Software, Inc., La Jolla, Calif.). […] Results were expressed as pIC50 (negative logarithm of IC50) and subsequently converted to pKi (negative logarithm of dissociate constant, Ki) using the Cheng-Prusoff equation. […]

Data set [2] is described as follows: In vitro human liver microsome intrinsic clearance (HLM Clint). In kind it is in vitro ADME. The conditions noted are these: liver microsomes, pH 7.4, 0.1 μM test compound, 0.1 mg/mL protein, 1 mM NADPH, 37° C. The procedure:
Liver microsomes were used for in vitro determination of hepatic clearance of the compound of Formula I. A microsomal incubation cofactor solution was prepared with 100 mM potassium phosphate buffered to pH 7.4 (BD Biosciences, Woburn, Mass.) supplemented with 2 mM NADPH (Sigma-Aldrich, St. Louis, Mo.). 10 mM DMSO stocks of test compound were diluted and spiked into the cofactor solution to yield a 0.2 μM concentration (0.02% v/v DMSO). Aliquots of frozen human liver microsomes (Bioreclamation IVT, Baltimore Md.) were thawed and diluted into 100 mM potassium phosphate buffer to yield microsomal protein concentrations of 0.2 mg/mL. Cofactor/drug and microsomal solutions were pre-warmed separately for 4 minutes in a water bath held at 37° C. Incubations (n=1) were started by the combination of equal volumes of cofactor/drug solution with microsomal solution. The final concentration of test compound was 0.1 μM with a final protein concentration of 0.1 mg/mL and final NADPH concentration of 1 mM. Samples were collected at times 0, 3, 8, 15, 30, and 45 minutes to monitor the disappearance of test compound. At each time point, 50 μL of incubation sample was removed and spiked into 25 μL of water plus 3% formic acid plus Internal Standard for reaction termination. Samples were then injected onto an AB Sciex API 4000 triple quadrupole mass spectrometer for quantitation by LC-MS/MS. […]

Bounds are passed on as bounds.

What is called microsomal CLint is the capacity of the preparation to metabolise the compound, expressed as a volume cleared per time. For the compound `C[C@@H]1CN(CCNc2cnc3ccc(-c4nc[nH]c4-c4cc(Cl)ccc4F)nc3c2)C[C@H](C)N1` [compound of Formula I, 6-(5-(5-chloro-2-fluorophenyl)-1H-imidazol-4-yl)-N-(2-((3S,5R)-3,5-dimethylpiperazin-1-yl)ethyl)-1,5-naphthyridin-3-amine], the Ki in data set [1] was 0.0398 to 0.316 nM. The microsomal CLint at 0.1 μM in data set [2] is greater than 250 µL/min/mg.
